Data as given in PubChem BioAssay (NCI).
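Values below derive from 48-hour exposures of cells grown in 96-well plates, with endpoints linearly interpolated between the two concentrations bracketing the appropriate inhibition level. The concentration for 50% growth inhibition is given as GI50. TGI: total growth inhibition.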

How the values were obtained:
Assay in all cases: DTP human tumour cell line panel, 48 h
[1] = system: SN12C renal
[2] = system: UACC-257 melanoma
[3] = system: SNB-19 CNS
[4] = system: NCI-H522 lung
[5] = system: UO-31 renal
[6] = system: SF-295 CNS
[7] = system: HCT-15 colon
[8] = system: EKVX NSCLC
[9] = system: MALME-3M melanoma
[10] = system: NCI-H460 lung
[11] = system: SF-268 CNS
[12] = system: CCRF-CEM leukemia
[13] = system: M14 melanoma
[14] = system: OVCAR-8 ovarian
[15] = system: SNB-75 CNS
[16] = system: U251 CNS
[17] = system: BT-549 breast
[18] = system: IGROV1 ovarian
[19] = system: SK-MEL-2 melanoma
[20] = system: A549 NSCLC
[21] = system: CAKI-1 renal
[22] = system: HOP-62 NSCLC
[23] = system: PC-3 prostate
[24] = system: LOX IMVI melanoma
[25] = system: SK-MEL-28 melanoma
[26] = system: NCI-H226 lung
[27] = system: RPMI-8226 leukemia
[28] = system: SF-539 CNS
[29] = system: HCT-116 colon
[30] = system: RXF 393 renal
[31] = system: HT29 colon
[32] = system: A498 renal
[33] = system: NCI-H23 lung
[34] = system: SW-620 colon
[35] = system: MDA-MB-435
[36] = system: HS 578T breast
[37] = system: K-562 leukemia
[38] = system: MDA-MB-231 breast
[39] = system: SR leukemia
[40] = system: HOP-92 NSCLC
[41] = system: SK-OV-3 ovarian
[42] = system: MCF7 breast
[43] = system: OVCAR-4 ovarian
[44] = system: SK-MEL-5 melanoma
[45] = system: UACC-62 melanoma
[46] = system: DU-145 prostate
[47] = system: NCI/ADR-RES ovarian
[48] = system: T-47D breast
[49] = system: OVCAR-5 ovarian
[50] = system: HCC-2998 colon
[51] = system: KM12 colon
[52] = system: ACHN renal
[53] = system: 786-0 renal
[54] = system: TK-10 renal
[55] = system: COLO 205 colon
[56] = system: MOLT-4 leukemia
[57] = system: HL-60(TB) leukemia

`O=c1c2cc(-c3ccc(F)cc3F)ccc2n(Nc2ccccc2)c(=O)n1-c1cccc(C(F)(F)F)c1` gave a GI50 [1] of 1000 nM, a TGI [1] of 5010 nM and a GI50 [2] of 963 nM. It also gave a TGI [2] of 3820 nM, a GI50 [3] of 931 nM and a TGI [3] greater than 100000 nM. The GI50 [4] was 440 nM, the TGI [4] was 2410 nM and the GI50 [5] was 1980 nM. It also gave a TGI [5] of 5960 nM, a GI50 [6] of 1830 nM and a TGI [6] of 3820 nM. For the same compound, the GI50 [7] was 812 nM, the TGI [7] was 2550 nM and the GI50 [8] was 2350 nM. For the same compound, the TGI [8] was 7910 nM, the GI50 [9] was 1500 nM and the TGI [9] was 5050 nM. For the same compound, the GI50 [10] was 775 nM, the TGI [10] was 4390 nM and the GI50 [11] was 1700 nM. For the same compound, the TGI [11] was 7980 nM, the GI50 [12] was 1970 nM and the TGI [12] was 9760 nM. For the same compound, the GI50 [13] was 1650 nM, the TGI [13] was 4170 nM and the GI50 [14] was 1230 nM. For the same compound, the TGI [14] was 3720 nM, the GI50 [15] was 1400 nM and the TGI [15] was 4860 nM. It also gave a GI50 [16] of 1740 nM, a TGI [16] of 10300 nM and a GI50 [17] of 1120 nM. For the same compound, the TGI [17] was 2530 nM, the GI50 [18] was 1910 nM and the TGI [18] was 13300 nM. The GI50 [19] was 532 nM, the TGI [19] was 2100 nM and the GI50 [20] was 2960 nM. The TGI [20] was 12700 nM, the GI50 [21] was 1510 nM and the TGI [21] was 4370 nM. It also gave a GI50 [22] of 1800 nM, a TGI [22] of 4110 nM and a GI50 [23] of 1350 nM. It also gave a TGI [23] of 5190 nM, a GI50 [24] of 1530 nM and a TGI [24] of 3120 nM. The GI50 [25] was 1280 nM, the TGI [25] was 4690 nM and the GI50 [26] was 1320 nM. The TGI [26] was 3420 nM, the GI50 [27] was 460 nM and the TGI [27] was 2570 nM. It also gave a GI50 [28] of 1570 nM, a TGI [28] of 5640 nM and a GI50 [29] of 1030 nM. For the same compound, the TGI [29] was 2340 nM, the GI50 [30] was 1200 nM and the TGI [30] was 2840 nM. It also gave a GI50 [31] of 2840 nM, a TGI [31] of 7740 nM and a GI50 [32] of 358 nM. The TGI [32] was 1250 nM, the GI50 [33] was 1060 nM and the TGI [33] was 4320 nM. The GI50 [34] was 1510 nM, the TGI [34] was 3550 nM and the GI50 [35] was 1520 nM. It also gave a TGI [35] of 5040 nM, a GI50 [36] of 1060 nM and a TGI [36] of 4200 nM. The GI50 [37] was 717 nM, the TGI [37] was greater than 100000 nM and the GI50 [38] was 1780 nM. For the same compound, the TGI [38] was 5620 nM, the GI50 [39] was 1110 nM and the TGI [39] was 4530 nM. For the same compound, the GI50 [40] was 190 nM, the TGI [40] was 679 nM and the GI50 [41] was 1270 nM. It also gave a TGI [41] of 3010 nM, a GI50 [42] of 1810 nM and a TGI [42] of 7440 nM. For the same compound, the GI50 [43] was 2670 nM, the TGI [43] was greater than 100000 nM and the GI50 [44] was 354 nM. For the same compound, the TGI [44] was 1350 nM, the GI50 [45] was 337 nM and the TGI [45] was 1410 nM. It also gave a GI50 [46] of 2560 nM, a TGI [46] of 61700 nM and a GI50 [47] of 1910 nM. For the same compound, the TGI [47] was 7740 nM, the GI50 [48] was 1400 nM and the TGI [48] was 5370 nM. The GI50 [49] was 3150 nM, the TGI [49] was 56300 nM and the GI50 [50] was 2550 nM. The TGI [50] was 6840 nM, the GI50 [51] was 2170 nM and the TGI [51] was 5660 nM. It also gave a GI50 [52] of 1810 nM, a TGI [52] of 5310 nM and a GI50 [53] of 1860 nM. It also gave a TGI [53] of 3830 nM, a GI50 [54] of 3980 nM and a TGI [54] of 8500 nM. The GI50 [55] was 1800 nM, the TGI [55] was 3270 nM and the GI50 [56] was 1790 nM. It also gave a TGI [56] of 5660 nM.
`O=C(NCCN1CCCC1)c1ccc(-c2nc3ccc4[nH]ncc4c3c3c2CCCC3)cc1` gave a GI50 [1] of 882 nM, a TGI [1] of 4460 nM and a GI50 [2] of 1050 nM. For the same compound, the TGI [2] was 2440 nM, the GI50 [3] was 1130 nM and the TGI [3] was 5060 nM. It also gave a GI50 [4] of 289 nM, a TGI [4] of 1050 nM and a GI50 [5] of 1400 nM. The TGI [5] was 6340 nM, the GI50 [6] was 1060 nM and the TGI [6] was 4160 nM. For the same compound, the GI50 [7] was 1910 nM, the TGI [7] was 7430 nM and the GI50 [8] was 850 nM. The TGI [8] was 5150 nM, the GI50 [9] was 769 nM and the TGI [9] was 1650 nM. It also gave a GI50 [10] of 628 nM, a TGI [10] of 1570 nM and a GI50 [11] of 703 nM. For the same compound, the TGI [11] was 1790 nM, the GI50 [12] was 497 nM and the TGI [12] was 3270 nM. The GI50 [57] was 978 nM, the TGI [57] was 2320 nM and the GI50 [13] was 729 nM. The TGI [13] was 1550 nM, the GI50 [14] was 798 nM and the TGI [14] was 3160 nM. The GI50 [15] was 259 nM, the TGI [15] was 1850 nM and the GI50 [16] was 717 nM. For the same compound, the TGI [16] was 2250 nM, the GI50 [17] was 384 nM and the TGI [17] was 1160 nM. It also gave a GI50 [18] of 351 nM, a TGI [18] of 4060 nM and a GI50 [19] of 726 nM. It also gave a TGI [19] of 1880 nM, a GI50 [20] of 1090 nM and a TGI [20] of 5540 nM. The GI50 [21] was 199 nM, the TGI [21] was 4380 nM and the GI50 [22] was 497 nM. The TGI [22] was 2140 nM, the GI50 [23] was 682 nM and the TGI [23] was 2770 nM. It also gave a GI50 [24] of 622 nM, a TGI [24] of 1360 nM and a GI50 [25] of 919 nM. It also gave a TGI [25] of 2680 nM, a GI50 [26] of 716 nM and a TGI [26] of 5250 nM. It also gave a GI50 [27] of 871 nM, a TGI [27] of 2270 nM and a GI50 [28] of 515 nM. For the same compound, the TGI [28] was 1170 nM, the GI50 [29] was 252 nM and the TGI [29] was 2020 nM. The GI50 [30] was 241 nM, the TGI [30] was 955 nM and the GI50 [31] was 996 nM. It also gave a TGI [31] of 3510 nM, a GI50 [32] of 193 nM and a TGI [32] of 911 nM. For the same compound, the GI50 [33] was 802 nM, the TGI [33] was 2460 nM and the GI50 [34] was 607 nM. For the same compound, the TGI [34] was 3140 nM, the GI50 [35] was 654 nM and the TGI [35] was 3890 nM. For the same compound, the GI50 [36] was 189 nM, the TGI [36] was 1390 nM and the GI50 [37] was 760 nM. The TGI [37] was 3880 nM, the GI50 [38] was 796 nM and the TGI [38] was 2430 nM. It also gave a GI50 [39] of 94.1 nM, a TGI [39] of 1900 nM and a GI50 [40] of 99.7 nM. For the same compound, the TGI [40] was 864 nM, the GI50 [41] was 232 nM and the TGI [41] was 2170 nM. For the same compound, the GI50 [42] was 807 nM, the TGI [42] was 4150 nM and the GI50 [43] was 1050 nM. It also gave a TGI [43] of 5080 nM, a GI50 [44] of 1100 nM and a TGI [44] of 2530 nM. For the same compound, the GI50 [45] was 1200 nM, the TGI [45] was 5600 nM and the GI50 [46] was 677 nM. It also gave a TGI [46] of 5340 nM, a GI50 [47] of 10700 nM and a TGI [47] of 50000 nM. For the same compound, the GI50 [48] was 1070 nM, the TGI [48] was 6100 nM and the GI50 [49] was 1390 nM. The TGI [49] was 4440 nM, the GI50 [50] was 870 nM and the TGI [50] was 2820 nM. It also gave a GI50 [51] of 237 nM, a TGI [51] of 2910 nM and a GI50 [52] of 1070 nM. The TGI [52] was 5890 nM, the GI50 [53] was 580 nM and the TGI [53] was 1350 nM. The GI50 [54] was 443 nM, the TGI [54] was 7360 nM and the GI50 [55] was 625 nM. For the same compound, the TGI [55] was 1490 nM, the GI50 [56] was 486 nM and the TGI [56] was 2640 nM.
